Active and inactive are the calls of the source. The rule behind the calls is not given here.
How the values were obtained:
Format in all cases: functional, cell-based
HeLa = test: Antiproliferative activity against human HeLa cells
MCF7 [1] = test: Antiproliferative activity against human MCF7 cells after 72 hrs by MTT assay; settings: MCF7, 72 h
U-937 = test: Antiproliferative activity against human U937 cells
Jurkat = test: Antiproliferative activity against human Jurkat cells
MDA-MB-231 [2] = test: Antiproliferative activity against human MDA-MB-231 cells after 72 hrs by alamarBlue assay; settings: MDA-MB-231, 72 h
MCF7 [3] = test: Antiproliferative activity against human MCF7 cells at 10 uM after 72 hrs by MTT assay
MDA-MB-231 [4] = test: Antiproliferative activity against human MDA-MB-231 cells at 10 uM after 72 hrs by alamarBlue assay

SMILES	IC50 (HeLa)	IC50 (MCF7 [1])	IC50 (U-937)	IC50 (Jurkat)	IC50 (MDA-MB-231 [2])	Activity (MCF7 [3])	Activity (MDA-MB-231 [4])
C/C=C(\C)C(=O)O[C@@H]1[C@@H](O)[C@@H]2O[C@H]3[C@H](O[C@@H](CCCCC)CCCCCCC(=O)CCC(=O)OC[C@@H](O2)[C@H]1OC(=O)/C=C/c1ccccc1)O[C@H](C)[C@H](OC(C)=O)[C@@H]3OC(C)=O	138 nM	216 nM	79.8 nM	82.6 nM	16.5 nM		
C/C=C(\C)C(=O)O[C@@H]1[C@@H](O)[C@@H]2O[C@H]3[C@H](O[C@@H](CCCCC)CCCCCCC(=O)CCC(=O)OC[C@@H](O2)[C@H]1OC(=O)/C=C/c1ccccc1)O[C@H](C)[C@H](OC(C)=O)[C@@H]3O	16.4 nM	43.7 nM	5.4 nM	6.1 nM	6.5 nM	Active	Active
C/C=C(\C)C(=O)O[C@H]1[C@@H]2O[C@@H](CCCCC)CCCCCCC(=O)CCC(=O)OC[C@@H](O2)[C@@H](O)[C@@H]1OC(=O)/C=C/c1ccccc1						inactive	inactive
C/C=C(\C)C(=O)O[C@@H]1[C@@H](O)[C@@H]2O[C@H]3[C@H](O[C@@H](CCCCC)CCCCCCC(=O)CCC(=O)OC[C@@H](O2)[C@H]1OC(=O)/C=C/c1ccccc1)O[C@H](C)[C@H](O)[C@@H]3O	133 nM	86.7 nM	72.5 nM	139 nM	131 nM		
C/C=C(\C)C(=O)O[C@@H]1[C@@H](O)[C@@H]2O[C@@H](CCCCC)CCCCCCC(=O)CCC(=O)OC[C@@H](O2)[C@H]1OC(=O)/C=C/c1ccccc1						inactive	inactive
C/C=C(\C)C(=O)O[C@@H]1[C@@H](O)[C@@H]2OCCO[C@@H](CCCCC)CCCCCCC(=O)CCC(=O)OC[C@@H](O2)[C@H]1OC(=O)/C=C/c1ccccc1						inactive	inactive
